Source: ChEMBL document CHEMBL1681715, “4-aminopyrimidine-5-carbaldehyde oximes as potent VEGFR-2 inhibitors. Part II” (Bioorg Med Chem Lett, 2011)
The source made the active and inactive calls. The rule behind the calls is not given here.

Tests used:
[1] = molecular target: Vascular endothelial growth factor receptor 2 (Homo sapiens, UniProt P35968)
[2] = molecular target: Vascular endothelial growth factor receptor 1 (Homo sapiens, UniProt P17948); experiment: Inhibition of FLT1
[3] = molecular target: T1, Receptor-type tyrosine-protein kinase FLT3 (Homo sapiens, UniProt P36888); experiment: Inhibition of FLT3
T1 sequence (P36888 whole entry): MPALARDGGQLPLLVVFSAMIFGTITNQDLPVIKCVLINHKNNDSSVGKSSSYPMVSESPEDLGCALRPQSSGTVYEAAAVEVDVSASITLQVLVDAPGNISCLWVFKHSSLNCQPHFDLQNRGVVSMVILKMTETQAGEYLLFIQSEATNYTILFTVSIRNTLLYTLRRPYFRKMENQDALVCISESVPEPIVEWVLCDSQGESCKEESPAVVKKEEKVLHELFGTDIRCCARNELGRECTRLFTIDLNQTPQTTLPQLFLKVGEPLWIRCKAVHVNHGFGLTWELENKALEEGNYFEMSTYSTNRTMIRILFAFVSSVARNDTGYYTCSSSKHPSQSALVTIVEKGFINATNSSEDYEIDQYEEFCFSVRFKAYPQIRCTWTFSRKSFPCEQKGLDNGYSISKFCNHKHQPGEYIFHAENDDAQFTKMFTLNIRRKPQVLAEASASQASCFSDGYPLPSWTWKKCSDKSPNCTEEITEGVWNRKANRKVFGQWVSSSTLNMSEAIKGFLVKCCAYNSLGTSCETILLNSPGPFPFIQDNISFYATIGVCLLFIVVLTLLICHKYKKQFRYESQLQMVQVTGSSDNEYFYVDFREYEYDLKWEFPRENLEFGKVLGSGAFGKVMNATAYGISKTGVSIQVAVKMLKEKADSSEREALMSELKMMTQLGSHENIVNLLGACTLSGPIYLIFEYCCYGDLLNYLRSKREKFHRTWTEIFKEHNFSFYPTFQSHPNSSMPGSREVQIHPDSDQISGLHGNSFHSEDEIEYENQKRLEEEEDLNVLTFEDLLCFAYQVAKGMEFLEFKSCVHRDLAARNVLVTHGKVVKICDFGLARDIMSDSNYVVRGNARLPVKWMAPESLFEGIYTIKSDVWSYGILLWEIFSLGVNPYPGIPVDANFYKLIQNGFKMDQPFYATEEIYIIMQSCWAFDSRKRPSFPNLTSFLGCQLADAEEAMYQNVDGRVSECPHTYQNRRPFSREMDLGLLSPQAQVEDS

[4] = molecular target: Mast/stem cell growth factor receptor Kit (Homo sapiens, UniProt P10721); experiment: Inhibition of KIT
Chain of Mast/stem cell growth factor receptor Kit (P10721 whole entry): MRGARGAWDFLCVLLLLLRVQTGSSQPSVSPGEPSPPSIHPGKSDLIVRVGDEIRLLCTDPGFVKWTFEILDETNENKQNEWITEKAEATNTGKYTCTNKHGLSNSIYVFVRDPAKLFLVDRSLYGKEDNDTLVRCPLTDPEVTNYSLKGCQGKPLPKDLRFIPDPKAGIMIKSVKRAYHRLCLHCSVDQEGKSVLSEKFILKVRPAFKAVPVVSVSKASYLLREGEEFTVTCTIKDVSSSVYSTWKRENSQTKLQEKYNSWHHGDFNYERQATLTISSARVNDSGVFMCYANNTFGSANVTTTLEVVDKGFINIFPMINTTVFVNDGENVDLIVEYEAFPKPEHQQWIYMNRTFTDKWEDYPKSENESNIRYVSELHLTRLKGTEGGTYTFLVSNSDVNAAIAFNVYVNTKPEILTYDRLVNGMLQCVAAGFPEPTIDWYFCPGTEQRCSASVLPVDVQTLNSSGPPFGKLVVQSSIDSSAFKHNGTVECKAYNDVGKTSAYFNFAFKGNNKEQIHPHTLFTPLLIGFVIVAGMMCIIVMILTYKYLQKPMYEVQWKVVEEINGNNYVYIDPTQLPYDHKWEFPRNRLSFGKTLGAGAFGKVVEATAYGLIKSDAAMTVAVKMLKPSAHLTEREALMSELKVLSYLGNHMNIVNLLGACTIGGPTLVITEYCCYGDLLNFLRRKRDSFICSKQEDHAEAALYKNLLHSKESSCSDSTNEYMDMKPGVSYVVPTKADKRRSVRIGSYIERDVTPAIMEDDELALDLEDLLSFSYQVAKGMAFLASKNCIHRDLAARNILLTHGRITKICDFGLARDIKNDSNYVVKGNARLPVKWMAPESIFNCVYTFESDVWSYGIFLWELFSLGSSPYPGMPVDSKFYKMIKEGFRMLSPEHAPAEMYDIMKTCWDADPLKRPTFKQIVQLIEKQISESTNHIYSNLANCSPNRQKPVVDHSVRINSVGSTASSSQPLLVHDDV

[5] = Cmax in BALB/c mouse at 2 mg/kg, iv; format: ADME, organism-based; set-up: dose 2 mg/kg, route intravenous; settings: in vivo
Mus musculus [6] = experiment: AUC in BALB/c mouse at 2 mg/kg, iv; format: ADME, organism-based, Plasma; set-up: dose 2 mg/kg, route intravenous; settings: in vivo
[7] = Volume of distribution at steady state in BALB/c mouse at 2 mg/kg, iv; format: ADME, organism-based; set-up: dose 2 mg/kg, route intravenous; settings: in vivo, read-out: Vdss
[8] = Half life in BALB/c mouse at 2 mg/kg, iv; format: ADME, organism-based; set-up: dose 2 mg/kg, route intravenous; settings: in vivo
[9] = Clearance in BALB/c mouse at 2 mg/kg, iv; format: ADME, organism-based; set-up: dose 2 mg/kg, route intravenous; settings: in vivo
[10] = Cmax in BALB/c mouse at 10 mg/kg, po; format: ADME, organism-based; set-up: dose 10 mg/kg, route oral; settings: in vivo
Mus musculus [11] = experiment: AUC in BALB/c mouse at 10 mg/kg, po; format: ADME, organism-based, Plasma; set-up: dose 10 mg/kg, route oral; settings: in vivo
[12] = Half life in BALB/c mouse at 10 mg/kg, po; format: ADME, organism-based; set-up: dose 10 mg/kg, route oral; settings: in vivo
Mus musculus [13] = experiment: Oral bioavailability in BALB/c mouse at 10 mg/kg; format: ADME, organism-based; settings: in vivo
[14] = Cmax in rat at 2 mg/kg, iv; format: ADME, organism-based; set-up: dose 2 mg/kg, route intravenous; settings: in vivo
Rattus norvegicus [15] = experiment: AUC in rat at 2 mg/kg, iv; format: ADME, organism-based, Plasma; set-up: dose 2 mg/kg, route intravenous; settings: in vivo
[16] = Volume of distribution at steady state in rat at 2 mg/kg, iv; format: ADME, organism-based; set-up: dose 2 mg/kg, route intravenous; settings: in vivo, read-out: Vdss
[17] = Half life in rat at 2 mg/kg, iv; format: ADME, organism-based; set-up: dose 2 mg/kg, route intravenous; settings: in vivo
[18] = Clearance in rat at 2 mg/kg, iv; format: ADME, organism-based; set-up: dose 2 mg/kg, route intravenous; settings: in vivo
[19] = Cmax in rat at 10 mg/kg, po; format: ADME, organism-based; set-up: dose 10 mg/kg, route oral; settings: in vivo
[20] = Half life in rat at 10 mg/kg, po; format: ADME, organism-based; set-up: dose 10 mg/kg, route oral; settings: in vivo
Rattus norvegicus [21] = experiment: Oral bioavailability in rat at 10 mg/kg; format: ADME, organism-based; settings: in vivo
A-375 [22] = experiment: Antiproliferative activity against human A375 cells at 100 uM; format: functional, cell-based
HCT-116 [23] = experiment: Antiproliferative activity against human HCT116 cells at 100 uM; format: functional, cell-based
A-431 [24] = experiment: Antitumor activity against human A431 cells xenografted po dosed mouse model measured after 10 to 14 days; format: functional, organism-based
A-431 [25] = experiment: Antitumor activity against human A431 cells xenografted mouse model measured at 100 to 200 mg/kg, po after 10 to 14 days; format: functional
HCT-116 [26] = experiment: Antitumor activity against human HCT116 cells xenografted po dosed mouse model measured after 10 to 14 days; format: functional, organism-based
HCT-116 [27] = experiment: Antitumor activity against human HCT116 cells xenografted mouse model measured at 100 to 200 mg/kg, po after 10 to 14 days; format: functional
Mus musculus [28] = experiment: Toxicity in mouse assessed as body weight at 100 to 200 mg/kg, po after 24 days; format: organism-based; set-up: dose 100-200 mg/kg, route oral; settings: in vivo, 576 h
A-375 [29] = experiment: Antitumor activity against human A375 cells xenografted mouse model assessed as growth inhibition at 100 mg/kg, po; format: functional

Chain of Vascular endothelial growth factor receptor 2 (P35968 whole entry): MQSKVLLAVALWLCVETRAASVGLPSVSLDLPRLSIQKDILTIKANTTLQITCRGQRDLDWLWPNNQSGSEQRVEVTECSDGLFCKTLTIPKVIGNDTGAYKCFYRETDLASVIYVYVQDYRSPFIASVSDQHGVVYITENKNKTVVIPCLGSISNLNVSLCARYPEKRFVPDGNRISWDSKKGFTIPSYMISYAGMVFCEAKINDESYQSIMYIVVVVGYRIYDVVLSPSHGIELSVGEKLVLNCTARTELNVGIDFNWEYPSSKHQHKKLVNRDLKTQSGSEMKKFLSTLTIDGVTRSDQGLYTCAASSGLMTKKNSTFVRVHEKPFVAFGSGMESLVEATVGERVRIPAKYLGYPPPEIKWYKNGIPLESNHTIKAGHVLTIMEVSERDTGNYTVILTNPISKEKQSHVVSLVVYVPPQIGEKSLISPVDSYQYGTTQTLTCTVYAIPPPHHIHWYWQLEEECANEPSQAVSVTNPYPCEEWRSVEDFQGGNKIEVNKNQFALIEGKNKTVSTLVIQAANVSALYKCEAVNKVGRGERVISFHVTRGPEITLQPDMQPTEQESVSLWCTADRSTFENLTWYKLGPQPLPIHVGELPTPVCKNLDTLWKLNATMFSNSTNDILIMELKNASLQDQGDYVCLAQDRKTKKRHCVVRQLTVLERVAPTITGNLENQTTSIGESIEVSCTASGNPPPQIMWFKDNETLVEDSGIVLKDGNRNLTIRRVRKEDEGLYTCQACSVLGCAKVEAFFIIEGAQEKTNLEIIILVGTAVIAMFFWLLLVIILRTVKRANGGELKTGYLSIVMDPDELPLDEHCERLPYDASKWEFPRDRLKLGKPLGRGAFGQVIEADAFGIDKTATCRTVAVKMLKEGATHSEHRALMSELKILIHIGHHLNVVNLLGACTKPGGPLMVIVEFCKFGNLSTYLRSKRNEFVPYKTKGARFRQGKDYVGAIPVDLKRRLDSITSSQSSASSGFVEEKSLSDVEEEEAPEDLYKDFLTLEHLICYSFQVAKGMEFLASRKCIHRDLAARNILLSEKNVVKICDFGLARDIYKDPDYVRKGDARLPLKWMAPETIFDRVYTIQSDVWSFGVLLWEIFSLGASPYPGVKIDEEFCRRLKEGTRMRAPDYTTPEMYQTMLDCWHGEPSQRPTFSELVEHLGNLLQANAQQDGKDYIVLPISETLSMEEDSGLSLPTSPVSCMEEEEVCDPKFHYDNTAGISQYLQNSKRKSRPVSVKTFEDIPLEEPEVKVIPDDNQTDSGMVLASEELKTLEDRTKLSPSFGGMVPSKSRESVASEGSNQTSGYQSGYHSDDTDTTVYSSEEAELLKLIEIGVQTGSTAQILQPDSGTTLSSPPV
Chain of Vascular endothelial growth factor receptor 1 (P17948 whole entry): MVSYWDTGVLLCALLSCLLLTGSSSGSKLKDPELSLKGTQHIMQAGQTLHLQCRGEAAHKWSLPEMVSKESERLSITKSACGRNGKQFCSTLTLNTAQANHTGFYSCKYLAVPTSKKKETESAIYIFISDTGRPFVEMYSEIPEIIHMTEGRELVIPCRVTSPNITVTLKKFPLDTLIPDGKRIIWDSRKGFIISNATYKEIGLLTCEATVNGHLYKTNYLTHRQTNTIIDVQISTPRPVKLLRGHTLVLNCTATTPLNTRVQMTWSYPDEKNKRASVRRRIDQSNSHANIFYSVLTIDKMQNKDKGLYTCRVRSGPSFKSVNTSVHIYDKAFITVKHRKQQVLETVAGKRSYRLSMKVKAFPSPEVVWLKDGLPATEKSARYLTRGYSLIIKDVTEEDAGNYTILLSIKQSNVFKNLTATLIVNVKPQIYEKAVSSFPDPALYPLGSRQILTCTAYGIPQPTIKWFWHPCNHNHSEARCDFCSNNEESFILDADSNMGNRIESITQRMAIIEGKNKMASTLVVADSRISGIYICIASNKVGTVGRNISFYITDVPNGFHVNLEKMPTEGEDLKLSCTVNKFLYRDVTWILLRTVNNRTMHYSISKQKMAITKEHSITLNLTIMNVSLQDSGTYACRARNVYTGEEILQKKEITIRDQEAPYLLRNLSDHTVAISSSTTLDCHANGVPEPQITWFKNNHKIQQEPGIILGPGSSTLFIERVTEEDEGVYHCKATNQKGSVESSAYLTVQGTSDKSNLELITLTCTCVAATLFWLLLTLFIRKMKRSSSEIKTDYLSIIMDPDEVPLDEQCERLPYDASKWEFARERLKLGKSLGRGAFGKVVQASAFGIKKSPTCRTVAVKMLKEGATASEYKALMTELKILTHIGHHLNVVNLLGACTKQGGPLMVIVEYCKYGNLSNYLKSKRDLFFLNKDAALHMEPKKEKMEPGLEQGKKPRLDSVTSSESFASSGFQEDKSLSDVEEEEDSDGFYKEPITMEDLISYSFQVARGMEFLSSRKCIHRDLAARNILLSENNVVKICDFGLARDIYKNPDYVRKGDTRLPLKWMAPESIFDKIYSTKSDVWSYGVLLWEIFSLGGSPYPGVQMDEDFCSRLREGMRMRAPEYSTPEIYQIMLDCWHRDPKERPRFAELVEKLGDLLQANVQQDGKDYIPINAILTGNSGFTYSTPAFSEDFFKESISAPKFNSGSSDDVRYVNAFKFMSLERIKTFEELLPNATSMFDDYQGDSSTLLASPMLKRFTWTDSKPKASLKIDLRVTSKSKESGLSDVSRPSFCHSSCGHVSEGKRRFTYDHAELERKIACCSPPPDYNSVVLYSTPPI

Q: With `CO/N=C/c1c(N)ncnc1Oc1ccc(NC(=O)NCc2ccc(F)cc2F)c(Cl)c1` as the compound, how does the IC50 [1] read?
A: Its IC50 is 10.3 nM.

Q: For `CO/N=C/c1c(N)ncnc1Oc1ccc(NC(=O)Nc2cccc(F)c2)c(Cl)c1`, which IC50 [1] is on record?
A: Its IC50 is 1.7 nM.

Q: With `CO/N=C/c1c(N)ncnc1Oc1ccc(NC(=O)OC)cc1Cl` as the compound, how does the IC50 [1] read?
A: The IC50 was 152 nM.

Q: Which IC50 [1] does the source give for `CO/N=C/c1c(N)ncnc1Oc1ccc(NC(=O)NC2CC2)c(Cl)c1` here?
A: The IC50 was 29 nM.

Q: Which IC50 [1] does the source give for `CO/N=C/c1c(N)ncnc1Oc1ccc(NC(=O)Nc2ccccn2)c(Cl)c1` here?
A: Its IC50 is 34 nM.

Q: With `CNC(=O)Nc1ccc(Oc2ncnc(N)c2/C=N/OC)c(Br)c1` as the compound, how does the IC50 [1] read?
A: The IC50 was over 100000 nM.

Q: For `CO/N=C/c1c(N)ncnc1Oc1ccc(NC(=O)NC(C)C)c(Cl)c1`, which IC50 [1] is on record?
A: The IC50 was 73 nM.

Q: Which IC50 [1] does the source give for `CO/N=C/c1c(N)ncnc1Oc1ccc(NC(=O)Nc2cc(C)on2)c(Cl)c1` here?
A: Its IC50 is 2 nM.

Q: With `CO/N=C/c1c(N)ncnc1Oc1ccc(NC(=O)Nc2ccccc2C)c(Cl)c1` as the compound, how does the IC50 [1] read?
A: Its IC50 is 7.9 nM.

Q: For `CO/N=C/c1c(N)ncnc1Oc1ccc(NC(=O)NCCO)c(Cl)c1`, which IC50 [1] is on record?
A: The IC50 was 168 nM.

Q: With `CNC(=O)Cc1ccc(Oc2ncnc(N)c2/C=N/OC)cc1` as the compound, how does the IC50 [1] read?
A: The IC50 was 19700 nM.

Q: For `CO/N=C/c1c(N)ncnc1Oc1ccc(NC(=O)Nc2ccccc2OC)c(Cl)c1`, which IC50 [1] is on record?
A: Its IC50 is 2.5 nM.

Q: For `CO/N=C/c1c(N)ncnc1Oc1ccc(NC(=O)Nc2ccc(F)cc2)c(Cl)c1`, which IC50 [1] is on record?
A: Its IC50 is 2.8 nM.

Q: With `CO/N=C/c1c(N)ncnc1Oc1ccc(NC(=O)NC2CCCCC2)c(Cl)c1` as the compound, how does the IC50 [1] read?
A: The IC50 was 6.5 nM.

Q: With `CCCNC(=O)Nc1ccc(Oc2ncnc(N)c2/C=N/OC)cc1Cl` as the compound, how does the IC50 [1] read?
A: The IC50 was 28 nM.

Q: Which IC50 [1] does the source give for `CO/N=C/c1c(N)ncnc1Oc1ccc(NC(=O)Nc2nc(C)c(C)s2)c(Cl)c1` here?
A: Its IC50 is 2 nM.

Q: Which results are given for `CCNC(=O)Nc1ccc(Oc2ncnc(N)c2/C=N/OC)cc1Cl`?
A: IC50 [2]: 4420 nM; IC50 [3]: 4800 nM; IC50 [4]: 513 nM; Cmax [5]: 2990 ng/mL; AUC (Mus musculus [6]): 6114 ng·h/mL; Vd [7]: 0.7 L/kg; half-life [8]: 2.8 h; clearance [9]: 5.6 mL/min/kg; Cmax [10]: 2790 ng/mL; AUC (Mus musculus [11]): 12305 ng·h/mL; half-life [12]: 2.1 h; F (Mus musculus [13]): 16%; Cmax [14]: 5400 ng/mL; AUC (Rattus norvegicus [15]): 4799 ng·h/mL; Vd [16]: 0.4 L/kg; half-life [17]: 0.7 h; clearance [18]: 7.4 mL/min/kg; Cmax [19]: 1030 ng/mL; half-life [20]: 10 h; F (Rattus norvegicus [21]): 30%; Activity (A-375 [22]): inactive; Activity (HCT-116 [23]): inactive; Activity (A-431 [24]): Dose-dependent effect; inhibition (INH) (A-431 [25]): 90%; Activity (HCT-116 [26]): Dose-dependent effect; inhibition (INH) (HCT-116 [27]): 90%; Activity (Mus musculus [28]): Non-toxic; inhibition in vivo at 100 mg/kg (A-375 [29]): 90%

Q: With `CO/N=C/c1c(N)ncnc1Oc1ccc(NC(=O)Nc2ccccc2F)c(Cl)c1` as the compound, how does the IC50 [1] read?
A: The IC50 was 3.3 nM.

Q: For `CO/N=C/c1c(N)ncnc1Oc1ccc(NC(=O)Nc2cccnc2)c(Cl)c1`, which IC50 [1] is on record?
A: The IC50 was 10 nM.

Q: Which IC50 [1] does the source give for `CO/N=C/c1c(N)ncnc1Oc1ccc(NC(C)=O)cc1Cl` here?
A: The IC50 was 2210 nM.

Q: For `CO/N=C/c1c(N)ncnc1Oc1ccc(NC(=O)NCCN(C)C)c(Cl)c1`, which IC50 [1] is on record?
A: Its IC50 is 285 nM.

Q: For `CO/N=C/c1c(N)ncnc1Oc1ccc(NC(=O)NCCCCN2CCCC2)c(Cl)c1`, which IC50 [1] is on record?
A: Its IC50 is 759 nM.

Q: Which IC50 [1] does the source give for `CO/N=C/c1c(N)ncnc1Oc1ccc(NC(=O)Nc2ccccc2Cl)c(Cl)c1` here?
A: Its IC50 is 2.6 nM.

Q: With `CNC(=O)Nc1ccc(Oc2ncnc(N)c2/C=N/OC)c(F)c1` as the compound, how does the IC50 [1] read?
A: Its IC50 is 142 nM.

Q: With `CO/N=C/c1c(N)ncnc1Oc1ccc(NC(=O)Nc2ccncc2)c(Cl)c1` as the compound, how does the IC50 [1] read?
A: The IC50 was 11 nM.

Q: Which IC50 [1] does the source give for `CO/N=C/c1c(N)ncnc1Oc1ccc(NC(=O)Nc2ccccc2)c(Cl)c1` here?
A: Its IC50 is 3 nM.

Q: Which IC50 [1] does the source give for `CCNC(=O)Nc1ccc(Oc2ncnc(N)c2/C=N/OC)c(C)c1` here?
A: The IC50 was 180 nM.

Q: Which IC50 [1] does the source give for `CO/N=C/c1c(N)ncnc1Oc1ccc(NC(=O)Nc2nccs2)c(Cl)c1` here?
A: Its IC50 is 3.4 nM.

Q: With `CNC(=O)Nc1ccc(Oc2ncnc(N)c2/C=N/OC)cc1Cl` as the compound, how does the IC50 [1] read?
A: The IC50 was 25 nM.

Q: With `CCNC(=O)Nc1ccc(Oc2ncnc(N)c2/C=N/OC)cc1` as the compound, how does the IC50 [1] read?
A: Its IC50 is 142 nM.

Q: For `CO/N=C/c1c(N)ncnc1Oc1ccc(NC(=O)Nc2ccc(F)cc2F)c(Cl)c1`, which IC50 [1] is on record?
A: Its IC50 is 3 nM.

Q: With `CCNC(=O)Oc1ccc(Oc2ncnc(N)c2/C=N/OC)cc1` as the compound, how does the IC50 [1] read?
A: Its IC50 is over 100000 nM.

Q: For `CO/N=C/c1c(N)ncnc1Oc1ccc(NC(=O)NCCCO)c(Cl)c1`, which IC50 [1] is on record?
A: Its IC50 is 400 nM.
